Results on 16 molecules are retold here after publication PMC7831505, “Monosubstituted Acetophenone Thiosemicarbazones as Potent Inhibitors of Tyrosinase: Synthesis, Inhibitory Studies, and Molecular Docking” (Pharmaceuticals, 2021).

Several values for one entry are separate records, joined by “and”; a condition that tells them apart may be missing. Equal entries are not always repeated. Some results are limits rather than exact numbers.

Test [1] relates to B16F10 murine melanoma cells. Briefly: Measurement of melanin production in α-MSH-stimulated cells. Type of test: cell-based. Particulars: for IC50: B16F10 cells stimulated with α-MSH 100 nM, 48 h with inhibitor, absorbance 405 nm, read-out: Inhibition of Melanin Production IC50. The method, then:
In the presence of α-MSH, the cells were treated with the inhibitors after 24 h. […] Kojic acid was used as a positive control, and dimethyl sulfoxide (DMSO) was used as a solvent control. Melanin content was measured spectrophotometrically at 405 nm. […] Cells were maintained in 5% CO2 at 37 °C. […] The cells were seeded into a 96-well plate (5 × 10^3 cells/well) and stimulated with α-MSH (100 nM, Sigma-Aldrich, Taufkirchen, Germany). […] After 48 h of incubation with inhibitors, cells were solubilized in 1 N sodium hydroxide (1 N, 60 °C, 2 h). In order to measure melanin content, absorbance was measured (λ = 405 nm) using a microplate reader.

Test [2] has as its system B16F10 murine melanoma cells. Briefly: Cell proliferation assay (MTT). The class given is cell-based. Conditions: read-out: Inhibition of Cell Proliferation IC50. The method, then: In the presence of α-MSH, the cells were treated with the inhibitors after 24 h. […] Kojic acid was used as a positive control, and dimethyl sulfoxide (DMSO) was used as a solvent control. Melanin content was measured spectrophotometrically at 405 nm. […] Cells were maintained in 5% CO2 at 37 °C. Cell viability was estimated using the MTT colorimetric assay as described in our previous papers and by Bellei et al.. […] Kojic acid and DMSO were used as controls. MTT was added to wells (0.625 mg/mL, Sigma-Aldrich, Taufkirchen, Germany) for the last 4 h. Then, lysing buffer was added to dissolve insoluble formazan. The absorbance was measured (λ = 570 nm) using a Thermo Lab Multiscan RC microplate reader.

Test [3] has as its target mushroom tyrosinase. Briefly: Tyrosinase enzymatic assay (diphenolase activity, dose-response IC50). Type of test: biochemical, Agaricus bisporus. Conditions: for IC50: L-DOPA 1 mM as substrate, pH 6.8, 25 °C, n = 3; for Ratio of IC50 of Kojic Acid to IC50 of TSC: mushroom tyrosinase diphenolase activity. The method, then: In order to determine the IC50, dose–response analysis for all investigated compounds was performed. […] The enzyme was isolated from Agaricus bisporus, purchased from a local supplier in Wroclaw, and prepared as described in our previous papers, according to known procedures reported in the literature. The full description of enzyme preparation is included in the Supplementary Materials (Section 2). […] L-DOPA was dissolved in a 0.15 mM phosphoric (V) acid solution to a concentration of 5 mM. […] The isolated tyrosinase solution (0.5 mg/mL, 40,000 U/mg) was diluted 10 times in sodium phosphate buffer (0,1 M, pH 6.8). […] The optimal ionic strength and pH for tyrosinase activity were provided by 0.1 M sodium phosphate buffer (pH 6.8). […] The control sample contained the same reagents as the test samples except for the substrate. […] The concentration of L-3,4-dihydroxyphenylalanine (L-DOPA) was 1 mM in all the cases.

In test [4] the test system is mushroom tyrosinase. Briefly: Kinetic studies of tyrosinase inhibition (Lineweaver-Burk and secondary plots). Type of test: biochemical, Agaricus bisporus. Conditions: for Inhibition Mechanism / Inhibition Type: diphenolase activity of mushroom tyrosinase, L-DOPA; for Inhibition Type: Lineweaver-Burk plot; for Ki: n = 3, secondary plots, read-out: Ki ± Standard Error (inhibition constant for enzyme-inhibitor complex). The method, then:
The kinetics of the interaction between TSCs 1–12 and mushroom tyrosinase were determined. […] The inhibition type was determined through creation of the Lineweaver–Burk plot (double reciprocal plot), which enables easier analysis of the Michaelis–Menten plot. […] Inhibition constants Ki were determined from the secondary plots of km (Michaelis constant) versus the inhibitor concentration for competitive inhibition and by the secondary plots of the slope of the lines from the Lineweaver–Burk plot as a function of the inhibitor concentration for mixed-type inhibition. […] They were all competitive inhibitors, whereas meta- and ortho-substituted compounds were mixed inhibitors. The inhibition mechanism for the investigated compounds was also tested. […] L-DOPA was dissolved in a 0.15 mM phosphoric (V) acid solution to a concentration of 5 mM. […] The isolated tyrosinase solution (0.5 mg/mL, 40,000 U/mg) was diluted 10 times in sodium phosphate buffer (0,1 M, pH 6.8). […] The optimal ionic strength and pH for tyrosinase activity were provided by 0.1 M sodium phosphate buffer (pH 6.8). […] The control sample contained the same reagents as the test samples except for the substrate. […] (b) Secondary plot of km versus inhibitor concentrations for determination of Ki for competitive inhibition. (c) Plot to determine the inhibitory mechanism.

For the molecule `C[S+](C)[O-]` [DMSO, dimethyl sulfoxide], the values for the IC50 in test [1] and in test [2] (48 h) were 8020 µM and 166 µM, respectively.
A word on the Ki: it is a dissociation constant, usually derived from enzyme kinetics or from competition with a known ligand. On to `C/C(=N\NC(N)=S)c1ccccc1[N+](=O)[O-]` [TSC 10, (E)-2’-Nitroacetophenone thiosemicarbazone], for which, on mushroom tyrosinase [3], the IC50 is above 150 µM and the “Ratio of IC50 of Kojic Acid to IC50 of TSC” value (“Ratio of IC50 of Kojic Acid” for short) is on record as 0.1. Moreover, in the test with mushroom tyrosinase [4], the “Inhibition Mechanism” value is on record as “reversible”, the “Inhibition Type” value was “mixed-type” and the Ki is 8.6 ± 0.5 µM. For the same molecule, the IC50 in test [1] (Mus musculus, B16-F10, 48 h) was 77.8 µM. Further, the IC50 in test [2] (Mus musculus, B16-F10, 48 h) came to 93.2 µM.
Consider `CC(=NNC(N)=S)c1ccccc1O` [TSC 7, 2’-hydroxyacetophenone thiosemicarbazone], for which, at mushroom tyrosinase [3], the IC50 is 1.2 µM and the “Ratio of IC50 of Kojic Acid” value amounted to 16.5. In the test with mushroom tyrosinase [4], the “Inhibition Mechanism” value is reported as “reversible”, the “Inhibition Type” value is recorded as “mixed-type” and the Ki turned out to be 0.7 ± 0.1 µM. Further, the IC50 in test [1] is 21.7 µM. In addition, the IC50 in test [1] (Mus musculus, B16-F10, 48 h) was below 30 µM. Besides, in test [2] (Mus musculus, B16-F10, 48 h), the IC50 amounted to 37.3 µM.
`C/C(=N\NC(N)=S)c1cccc(O)c1` [TSC 8, (E)-3’-Hydroxyacetophenone thiosemicarbazone]: at mushroom tyrosinase [3], the IC50 worked out at 0.95 µM; the “Ratio of IC50 of Kojic Acid” value was 20 and 20.9. In the test on mushroom tyrosinase [4], the “Inhibition Mechanism” value is “reversible”, the “Inhibition Type” value is given as “mixed-type” and the Ki was 0.6 ± 0.08 µM. Moreover, the IC50 in test [1] (Mus musculus, B16-F10, 48 h) is 69.5 µM. The IC50 in test [2] (Mus musculus, B16-F10, 48 h) is 103 µM.
For `COc1ccccc1C(C)=NNC(N)=S` [TSC 1, 2’-methoxyacetophenone thiosemicarbazone], on mushroom tyrosinase [3], the IC50 was determined as 12.2 µM and the “Ratio of IC50 of Kojic Acid” value is on record as 1.6. Moreover, in the test with mushroom tyrosinase [4], the “Inhibition Mechanism” value is recorded as “reversible”, the “Inhibition Type” value is “mixed-type” and the Ki came to 5 ± 1.4 µM. Besides, the IC50 in test [1] (Mus musculus, B16-F10, 48 h) came to 39.2 µM. For the same molecule, the IC50 in test [2] (Mus musculus, B16-F10, 48 h) turned out to be 45.2 µM.
Take `C/C(=N\NC(N)=S)c1ccc(O)cc1` [TSC 9, (E)-4’-Hydroxyacetophenone thiosemicarbazone]: the IC50 at mushroom tyrosinase [3] was 0.8 µM; in test [1] it was 25.2 µM; in test [1] (Mus musculus, B16-F10, 48 h), below 30 µM; in test [2] (Mus musculus, B16-F10, 48 h), 115 µM. For the same molecule, the “Ratio of IC50 of Kojic Acid” value in the test on mushroom tyrosinase [3] is 20 and 24.9. Moreover, the “Inhibition Mechanism” value with mushroom tyrosinase [4] is “reversible”. For the same molecule, the “Inhibition Type” value is “competitive” in the test on mushroom tyrosinase [4] and “competitively” with mushroom tyrosinase [4] (listed as Compound 9). Besides, the Ki at mushroom tyrosinase [4] was determined as 0.6 ± 0.06 µM. Moreover, in test [1] (B16F10 cells), the “Ratio of IC50 for the inhibition of B16F10 cell proliferation to IC50 for the inhibition of melanin production” value is 4.6.
Consider `C/C(=N\NC(N)=S)c1ccc(N)cc1` [TSC 6, (E)-4’-Aminoacetophenone thiosemicarbazone], for which, in the test on mushroom tyrosinase [4], the “Inhibition Mechanism” value is on record as “reversible”, the “Inhibition Type” value is “competitively” and the Ki was 0.2 ± 0.06 µM. In addition, the IC50 in test [1] (Mus musculus, B16-F10, 48 h) was determined as 139 µM. In test [2] (Mus musculus, B16-F10, 48 h), the IC50 came to 155 µM.
On to `C/C(=N/NC(N)=S)c1ccccc1` [Acetophenone TSC, acetophenone thiosemicarbazones], for which, at mushroom tyrosinase [3], the IC50 turned out to be 1.5 µM and the “Ratio of IC50 of Kojic Acid” value came out at 13.2.
As for `C/C(=N\NC(N)=S)c1cccc(N)c1` [TSC 5, (E)-3’-Aminoacetophenone thiosemicarbazone], on mushroom tyrosinase [3], the IC50 worked out at 0.65 µM and the “Ratio of IC50 of Kojic Acid” value is on record as 30.6. Moreover, in the test on mushroom tyrosinase [4], the “Inhibition Mechanism” value is listed as “reversible”, the “Inhibition Type” value is “mixed-type” and the Ki was 0.6 ± 0.1 µM. In test [1] (Mus musculus, B16-F10, 48 h), the IC50 is 88.9 µM. In test [2] (Mus musculus, B16-F10, 48 h), the IC50 is 150 µM.
On to `COc1ccc(/C(C)=N/NC(N)=S)cc1` [TSC 3, (E)-4’-Methoxyacetophenone thiosemicarbazone], for which, at mushroom tyrosinase [3], the IC50 turned out to be 1.8 µM and the “Ratio of IC50 of Kojic Acid” value is 11.1. In addition, in the test with mushroom tyrosinase [4], the “Inhibition Mechanism” value is “reversible”, the “Inhibition Type” value is recorded as “competitive” and the Ki turned out to be 0.6 ± 0.01 µM. In the test on mushroom tyrosinase [4] (listed as Compound 3), the “Inhibition Type” value is recorded as “competitively”. Also, the IC50 in test [2] (Mus musculus, B16-F10, 48 h) stood at 20.3 µM.
For the molecule `NC(=S)N/N=C\c1ccccc1` [Benzaldehyde TSC, benzaldehyde thiosemicarbazone, reference compound], at mushroom tyrosinase [3], the IC50 is 3.4 µM and the “Ratio of IC50 of Kojic Acid” value was 5.6.
As for `CC(=NNC(N)=S)c1ccccc1N` [TSC 4, 2’-aminoacetophenone thiosemicarbazone], on mushroom tyrosinase [3], the IC50 worked out at 11.3 µM and the “Ratio of IC50 of Kojic Acid” value turned out to be 1.8. In the test with mushroom tyrosinase [4], the “Inhibition Mechanism” value was “reversible”, the “Inhibition Type” value is recorded as “mixed-type” and the Ki was 8 ± 0.9 µM. In test [1] (Mus musculus, B16-F10, 48 h), the IC50 came to 208 µM.
Regarding `COc1cccc(/C(C)=N/NC(N)=S)c1` [TSC 2, (E)-3’-Methoxyacetophenone thiosemicarbazone], on mushroom tyrosinase [3], the IC50 was found to be 1.9 µM and the “Ratio of IC50 of Kojic Acid” value stood at 10.5. In addition, in the test on mushroom tyrosinase [4], the “Inhibition Mechanism” value is on record as “reversible”, the “Inhibition Type” value is reported as “mixed-type” and the Ki is 1 ± 0.1 µM. In test [2] (Mus musculus, B16-F10, 48 h), the IC50 worked out at 22.4 µM.
On to `C/C(=N\NC(N)=S)c1ccc([N+](=O)[O-])cc1` [TSC 12, (E)-4’-Nitroacetophenone thiosemicarbazone], for which the “Ratio of IC50 of Kojic Acid” value with mushroom tyrosinase [3] is 12.4. In the test with mushroom tyrosinase [4], the “Inhibition Mechanism” value is reported as “reversible” and the “Inhibition Type” value was “mixed”. The IC50 in test [2] (Mus musculus, B16-F10, 48 h) turned out to be 137 µM.
On to `O=c1cc(CO)occ1O` [Kojic acid, reference compound], for which the “Inhibition Mechanism” value in the test on mushroom tyrosinase [4] is reported as “reversible”. The “Inhibition Type” value with mushroom tyrosinase [4] was “mixed”. In addition, the IC50 was determined as 114 µM in test [1] (Mus musculus, B16-F10, 48 h) and 153 µM in test [2] (Mus musculus, B16-F10, 48 h).
For the molecule `C/C(=N\NC(N)=S)c1cccc([N+](=O)[O-])c1` [TSC 11, (E)-3’-Nitroacetophenone thiosemicarbazone], at mushroom tyrosinase [3], the IC50 is 14.2 µM and the “Ratio of IC50 of Kojic Acid” value came to 1.4. Besides, in the test with mushroom tyrosinase [4], the “Inhibition Mechanism” value is “reversible” and the Ki came to 0.4 ± 0.02 µM. Further, the “Inhibition Type” value with mushroom tyrosinase [4] (listed as Compound 11) is recorded as “competitively”. For the same molecule, the IC50 in test [1] (Mus musculus, B16-F10, 48 h) turned out to be 44 µM. The IC50 in test [2] (Mus musculus, B16-F10, 48 h) worked out at 44.8 µM.
